{
  "source": "patent US20250255891A1",
  "about": "“PHARMACEUTICAL COMPOSITION INJECTABLE INTO URINARY TRACT ORGAN CAVITY FOR PREVENTION OR TREATMENT OF UROTHELIAL CANCER” (NATIONAL UNIVERSITY CORPORATION KAGAWA UNIVERSITY, priority 2019, published 2025)",
  "key": {"[1]": {"test": "Basic safety tests (mutagenicity, biodegradability, acute oral toxicity, primary skin irritation, primary eye irritation)", "details": "tests ordered to a designated laboratory", "text": "The safety of D-allose required for use as a pharmaceutical component is probably sufficient because the rare sugar is a monosaccharide present even in a trace amount in nature. Mutagenicity test, biodegradability test, and three acute toxicity tests (acute oral toxicity test, primary skin irritation test, and primary eye irritation test) are established as the most basic safety tests."}, "[2]": {"test_system": "J82", "test": "Cell survival assay (MTT assay), urothelial cancer cell line J82", "assay_type": "cell-based, human", "description": "(§1) Three human urothelial cancer cell lines (RT112, 253J, and J82) were used to analyze the antitumor effect of rare sugars. Ten rare sugars of L-allulose, D-allulose, D-allose, L-fructose, D-mannose, L-sorbose, D-tagatose, D-galactose, D-sorbose, and L-tagatose were used, and D-glucose and D-fructose were used as monosaccharides other than the rare sugars. A minimum essential medium (MEM) containing D-glucose at 1,000 mg/l was used as the culture medium, and the antitumor effect of a rare sugar was evaluated in a prepared MEM containing a monosaccharide or a rare sugar at 10 mM, 25 mM, or 50 mM [in the drawings, indicated by (10), (25), or (50)]. An MEM containing no sugar was used for control. With the MEM, cell suspensions each at 5.0×10^4 cells/ml were prepared. Each suspension was distributed in a 96-well plate at 0.1 ml/well and then was incubated for 24 hours. The culture solution was then removed, next a culture solution containing a monosaccharide or a rare sugar at 10 mM, 25 mM, or 50 mM in the MEM was added at 0.1 ml/well, and the whole was incubated for 24 hours (#1 to #13). An MTT assay is a test method for determining survival and uses a color reaction of an insoluble formazan pigment (blue) formed by reduction of MTT as a tetrazolium salt. […] The coloration is measured with a microplate reader to determine the cell survival rate."}, "[3]": {"test_system": "253J", "test": "Cell survival assay (MTT assay), urothelial cancer cell line 253J", "assay_type": "cell-based, human", "description": "as §1"}, "[4]": {"test_system": "RT112", "test": "Cell survival assay (MTT assay), urothelial cancer cell line RT112", "assay_type": "cell-based, human", "description": "as §1"}, "[5]": {"details": "compared with 11 other monosaccharides/rare sugars at 10-50 mM"}},
  "data": [
    {"smiles": "O=C[C@H](O)[C@H](O)[C@H](O)[C@H](O)CO", "note": "[D-allose]", "values": [
      {"measurement": "result of basic safety tests", "setting": "[1]", "result": "sufficient safety"},
      {"measurement": "survival rate as compared with the control", "setting": "[2]; 10 mM, 25 mM and 50 mM in MEM, 24 hours, p<0.05, FIG. 3", "result": "significantly reduced the survival rate"},
      {"measurement": "antitumor effect relative to the other analyzed sugars", "setting": "[2]; [5]", "result": "strongest antitumor effect among the analyzed sugars"},
      {"measurement": "survival rate as compared with the control", "setting": "[3]; 10 mM, 25 mM and 50 mM in MEM, 24 hours, p<0.05, FIG. 2", "result": "significantly reduced the survival rate"},
      {"measurement": "antitumor effect relative to the other analyzed sugars", "setting": "[3]; [5]", "result": "strongest antitumor effect among the analyzed sugars"},
      {"measurement": "survival rate as compared with the control", "setting": "[4]; 10 mM, 25 mM and 50 mM in MEM, 24 hours, p<0.05, FIG. 1", "result": "significantly reduced the survival rate"},
      {"measurement": "antitumor effect relative to the other analyzed sugars", "setting": "[4]; [5]", "result": "strongest antitumor effect among the analyzed sugars"}
    ]}
  ]
}
